# Patent US9682995B2, “Amino-substituted isothiazoles” (BAYER PHARMA AKTIENGESELLSCHAFT, priority 2013, dated 2017)
# Experiments:
# Assay in all cases: Kinase Profiling (KINOMEscan)
# Type in all cases: binding
# [1] = target: 456 kinases (of these 395 non-mutant kinases) (Homo sapiens, UniProt Q9UIK4); conditions: DAPK2; 10 μM
# [2] = target: 456 kinases (of these 395 non-mutant kinases) (Homo sapiens, UniProt Q9NWZ3); conditions: IRAK4; 10 μM
# [3] = target: 456 kinases (of these 395 non-mutant kinases) (Homo sapiens, UniProt P10721, T670I/V559D); conditions: KIT(V559D,T670I); 10 μM
# [4] = target: 456 kinases (of these 395 non-mutant kinases) (Homo sapiens, UniProt Q8IYT8); conditions: ULK2; 10 μM
# [5] = target: 456 kinases (of these 395 non-mutant kinases) (Homo sapiens, UniProt P37173); conditions: TGFBR2; 10 μM
# [6] = target: 456 kinases (of these 395 non-mutant kinases) (Homo sapiens, UniProt O43318); conditions: TAK1; 10 μM
# [7] = target: 456 kinases (of these 395 non-mutant kinases) (Homo sapiens, UniProt P24723); conditions: PRKCH; 10 μM
# [8] = target: 456 kinases (of these 395 non-mutant kinases) (Homo sapiens, UniProt O94804); conditions: LOK; 10 μM
# [9] = target: 456 kinases (of these 395 non-mutant kinases) (Homo sapiens, UniProt Q14164); conditions: IKK-epsilon; 10 μM
# [10] = target: 456 kinases (of these 395 non-mutant kinases) (Homo sapiens, UniProt Q8TBX8); conditions: PIP5K2C; 10 μM
# [11] = target: 456 kinases (of these 395 non-mutant kinases) (Homo sapiens, UniProt P10721, D816H); conditions: KIT(D816H); 10 μM
# [12] = target: 456 kinases (of these 395 non-mutant kinases) (Homo sapiens, UniProt P09619); conditions: PDGFRB; 10 μM
# [13] = target: 456 kinases (of these 395 non-mutant kinases) (Homo sapiens, UniProt P49840); conditions: GSK3A; 10 μM
# [14] = target: 456 kinases (of these 395 non-mutant kinases) (Homo sapiens, UniProt P42336, M1043I); conditions: PIK3CA(M1043I); 10 μM
# [15] = target: 456 kinases (of these 395 non-mutant kinases) (Homo sapiens, UniProt Q9Y5S2); conditions: MRCKB; 10 μM
# [16] = target: 456 kinases (of these 395 non-mutant kinases) (Homo sapiens, UniProt Q9P2K8, S808G); conditions: GCN2(Kin.Dom.2,S808G); 10 μM
# [17] = target: 456 kinases (of these 395 non-mutant kinases) (Homo sapiens, UniProt Q96GD4); conditions: AURKB; 10 μM
# [18] = target: 456 kinases (of these 395 non-mutant kinases) (Homo sapiens, UniProt P54760); conditions: EPHB4; 10 μM
# [19] = target: 456 kinases (of these 395 non-mutant kinases) (Homo sapiens, UniProt Q9Y2H9); conditions: MAST1; 10 μM
# [20] = target: 456 kinases (of these 395 non-mutant kinases) (Homo sapiens, UniProt P15056, V600E); conditions: BRAF(V600E); 10 μM
# [21] = target: 456 kinases (of these 395 non-mutant kinases) (Homo sapiens, UniProt Q13873); conditions: BMPR2; 10 μM
# [22] = target: 456 kinases (of these 395 non-mutant kinases) (Homo sapiens, UniProt O14936); conditions: CASK; 10 μM
# [23] = target: 456 kinases (of these 395 non-mutant kinases) (Homo sapiens, UniProt O00329); conditions: PIK3CD; 10 μM
# [24] = target: 456 kinases (of these 395 non-mutant kinases) (Homo sapiens, UniProt Q9NQU5); conditions: PAK6; 10 μM
# [25] = target: 456 kinases (of these 395 non-mutant kinases) (Homo sapiens, UniProt Q13627); conditions: DYRK1A; 10 μM
# [26] = target: 456 kinases (of these 395 non-mutant kinases) (Homo sapiens, UniProt P51957); conditions: NEK4; 10 μM
# [27] = target: 456 kinases (of these 395 non-mutant kinases) (Homo sapiens, UniProt P00533, T790M); conditions: EGFR(T790M); 10 μM
# [28] = target: 456 kinases (of these 395 non-mutant kinases) (Homo sapiens, UniProt Q9BXA7); conditions: TSSK1B; 10 μM
# [29] = target: 456 kinases (of these 395 non-mutant kinases) (Homo sapiens, UniProt Q6ZN16); conditions: MAP3K15; 10 μM
# [30] = target: 456 kinases (of these 395 non-mutant kinases) (Homo sapiens, UniProt P07332); conditions: FES; 10 μM
# [31] = target: 456 kinases (of these 395 non-mutant kinases) (Homo sapiens, UniProt Q16512); conditions: PKN1; 10 μM
# [32] = target: 456 kinases (of these 395 non-mutant kinases) (Homo sapiens, UniProt Q16513); conditions: PKN2; 10 μM
# Chain of 456 kinases (of these 395 non-mutant kinases) (Homo sapiens, UniProt P10721, D816H) (P10721 26-976 D816H limits assumed): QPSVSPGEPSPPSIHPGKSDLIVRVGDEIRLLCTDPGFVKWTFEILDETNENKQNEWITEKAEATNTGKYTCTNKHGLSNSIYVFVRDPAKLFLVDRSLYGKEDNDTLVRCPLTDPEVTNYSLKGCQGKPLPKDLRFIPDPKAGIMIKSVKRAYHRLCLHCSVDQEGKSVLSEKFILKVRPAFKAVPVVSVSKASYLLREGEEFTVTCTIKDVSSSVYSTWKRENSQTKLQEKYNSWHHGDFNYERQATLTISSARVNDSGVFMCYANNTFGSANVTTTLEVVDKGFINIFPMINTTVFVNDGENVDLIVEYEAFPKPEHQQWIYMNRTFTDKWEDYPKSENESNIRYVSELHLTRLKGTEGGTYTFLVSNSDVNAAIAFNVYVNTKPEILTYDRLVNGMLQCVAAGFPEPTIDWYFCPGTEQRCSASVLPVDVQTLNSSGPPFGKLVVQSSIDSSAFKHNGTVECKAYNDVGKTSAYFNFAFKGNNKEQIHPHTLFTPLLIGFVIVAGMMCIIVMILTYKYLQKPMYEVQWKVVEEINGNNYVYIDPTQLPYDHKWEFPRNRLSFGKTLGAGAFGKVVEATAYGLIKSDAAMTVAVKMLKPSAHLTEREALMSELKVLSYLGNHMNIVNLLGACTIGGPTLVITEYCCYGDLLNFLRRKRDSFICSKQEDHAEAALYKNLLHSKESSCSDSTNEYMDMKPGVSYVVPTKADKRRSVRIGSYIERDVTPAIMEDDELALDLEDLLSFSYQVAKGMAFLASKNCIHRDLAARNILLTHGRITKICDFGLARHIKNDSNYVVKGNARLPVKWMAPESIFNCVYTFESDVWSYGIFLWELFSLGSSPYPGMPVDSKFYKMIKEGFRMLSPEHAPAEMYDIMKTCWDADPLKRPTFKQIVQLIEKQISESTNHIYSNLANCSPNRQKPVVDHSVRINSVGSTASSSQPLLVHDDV
# Chain of 456 kinases (of these 395 non-mutant kinases) (Homo sapiens, UniProt P49840) (P49840 2-483 limits assumed, stated change not applied): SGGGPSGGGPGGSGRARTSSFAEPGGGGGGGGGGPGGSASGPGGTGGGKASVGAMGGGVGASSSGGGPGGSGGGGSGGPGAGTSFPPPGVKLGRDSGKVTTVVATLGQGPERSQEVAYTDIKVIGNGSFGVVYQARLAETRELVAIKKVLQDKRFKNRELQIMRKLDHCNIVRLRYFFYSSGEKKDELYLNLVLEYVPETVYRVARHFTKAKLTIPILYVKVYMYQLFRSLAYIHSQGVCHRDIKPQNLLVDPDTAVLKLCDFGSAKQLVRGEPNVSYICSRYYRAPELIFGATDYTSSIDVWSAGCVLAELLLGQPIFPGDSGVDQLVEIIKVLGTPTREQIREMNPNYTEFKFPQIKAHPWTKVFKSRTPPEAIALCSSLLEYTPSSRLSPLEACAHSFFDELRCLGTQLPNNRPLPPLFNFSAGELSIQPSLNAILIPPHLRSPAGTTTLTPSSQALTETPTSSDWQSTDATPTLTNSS
# Chain of 456 kinases (of these 395 non-mutant kinases) (Homo sapiens, UniProt P10721, T670I/V559D) (P10721 26-976 V559D/T670I limits assumed): as the sequence (P10721 26-976 D816H limits assumed) above, with V534D, T645I, H791D counted along it
# Chain of 456 kinases (of these 395 non-mutant kinases) (Homo sapiens, UniProt P37173) (P37173 23-567 limits assumed, change not shown): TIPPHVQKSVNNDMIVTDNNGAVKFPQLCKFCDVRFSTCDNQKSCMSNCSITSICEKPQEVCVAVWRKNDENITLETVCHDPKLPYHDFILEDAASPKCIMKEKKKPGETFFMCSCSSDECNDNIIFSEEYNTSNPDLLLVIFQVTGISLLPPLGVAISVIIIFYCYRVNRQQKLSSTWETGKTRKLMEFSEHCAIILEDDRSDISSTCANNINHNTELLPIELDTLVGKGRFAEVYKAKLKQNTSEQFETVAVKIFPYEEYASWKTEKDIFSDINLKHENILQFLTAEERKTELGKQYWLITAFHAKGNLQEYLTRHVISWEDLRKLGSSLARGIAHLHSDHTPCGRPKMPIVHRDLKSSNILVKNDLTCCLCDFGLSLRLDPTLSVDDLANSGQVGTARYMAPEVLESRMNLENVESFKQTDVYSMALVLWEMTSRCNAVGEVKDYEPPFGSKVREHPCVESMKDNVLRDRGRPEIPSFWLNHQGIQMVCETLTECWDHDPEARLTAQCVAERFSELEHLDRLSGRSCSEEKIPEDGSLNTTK
# Chain of 456 kinases (of these 395 non-mutant kinases) (Homo sapiens, UniProt P54760) (P54760 16-987 limits assumed, change not shown): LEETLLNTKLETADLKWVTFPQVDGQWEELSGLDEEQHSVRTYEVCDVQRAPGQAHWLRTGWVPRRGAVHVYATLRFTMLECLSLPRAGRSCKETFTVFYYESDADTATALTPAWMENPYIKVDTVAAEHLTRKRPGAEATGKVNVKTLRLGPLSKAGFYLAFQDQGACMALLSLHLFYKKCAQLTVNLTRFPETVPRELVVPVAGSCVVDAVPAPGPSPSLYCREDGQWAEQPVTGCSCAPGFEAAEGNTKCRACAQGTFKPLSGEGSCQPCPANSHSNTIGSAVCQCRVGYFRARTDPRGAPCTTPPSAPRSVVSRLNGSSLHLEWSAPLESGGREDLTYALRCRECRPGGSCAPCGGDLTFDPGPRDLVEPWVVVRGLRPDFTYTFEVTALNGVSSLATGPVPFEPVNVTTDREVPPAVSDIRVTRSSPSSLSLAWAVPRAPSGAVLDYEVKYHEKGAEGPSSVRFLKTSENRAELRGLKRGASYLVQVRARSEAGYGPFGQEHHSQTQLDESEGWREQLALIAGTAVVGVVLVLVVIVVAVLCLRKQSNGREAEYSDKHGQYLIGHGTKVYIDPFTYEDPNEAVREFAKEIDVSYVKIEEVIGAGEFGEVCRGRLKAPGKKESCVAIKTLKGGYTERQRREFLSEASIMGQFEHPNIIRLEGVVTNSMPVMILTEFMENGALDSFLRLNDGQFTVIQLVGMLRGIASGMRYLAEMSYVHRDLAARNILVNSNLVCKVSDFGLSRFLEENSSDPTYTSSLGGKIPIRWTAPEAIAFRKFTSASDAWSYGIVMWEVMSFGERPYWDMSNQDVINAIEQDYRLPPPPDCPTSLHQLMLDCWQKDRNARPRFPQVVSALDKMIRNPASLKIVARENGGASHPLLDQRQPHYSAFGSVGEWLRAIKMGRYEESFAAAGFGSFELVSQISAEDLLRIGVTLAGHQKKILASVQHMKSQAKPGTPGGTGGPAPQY
# Chain of 456 kinases (of these 395 non-mutant kinases) (Homo sapiens, UniProt Q8TBX8) (Q8TBX8 2-421 limits assumed, stated change not applied): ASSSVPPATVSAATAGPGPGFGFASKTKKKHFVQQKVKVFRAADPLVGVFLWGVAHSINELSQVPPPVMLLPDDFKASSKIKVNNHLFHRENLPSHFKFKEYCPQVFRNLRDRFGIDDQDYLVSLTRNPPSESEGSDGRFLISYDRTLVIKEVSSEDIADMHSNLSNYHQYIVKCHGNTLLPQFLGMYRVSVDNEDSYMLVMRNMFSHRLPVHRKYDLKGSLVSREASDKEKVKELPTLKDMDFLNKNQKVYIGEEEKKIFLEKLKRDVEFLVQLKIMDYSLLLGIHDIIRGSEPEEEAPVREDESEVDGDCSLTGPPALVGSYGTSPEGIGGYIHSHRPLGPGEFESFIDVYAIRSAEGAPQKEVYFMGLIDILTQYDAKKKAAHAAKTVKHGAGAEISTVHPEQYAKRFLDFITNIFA
# Chain of 456 kinases (of these 395 non-mutant kinases) (Homo sapiens, UniProt Q13873) (Q13873 27-1038 limits assumed, change not shown): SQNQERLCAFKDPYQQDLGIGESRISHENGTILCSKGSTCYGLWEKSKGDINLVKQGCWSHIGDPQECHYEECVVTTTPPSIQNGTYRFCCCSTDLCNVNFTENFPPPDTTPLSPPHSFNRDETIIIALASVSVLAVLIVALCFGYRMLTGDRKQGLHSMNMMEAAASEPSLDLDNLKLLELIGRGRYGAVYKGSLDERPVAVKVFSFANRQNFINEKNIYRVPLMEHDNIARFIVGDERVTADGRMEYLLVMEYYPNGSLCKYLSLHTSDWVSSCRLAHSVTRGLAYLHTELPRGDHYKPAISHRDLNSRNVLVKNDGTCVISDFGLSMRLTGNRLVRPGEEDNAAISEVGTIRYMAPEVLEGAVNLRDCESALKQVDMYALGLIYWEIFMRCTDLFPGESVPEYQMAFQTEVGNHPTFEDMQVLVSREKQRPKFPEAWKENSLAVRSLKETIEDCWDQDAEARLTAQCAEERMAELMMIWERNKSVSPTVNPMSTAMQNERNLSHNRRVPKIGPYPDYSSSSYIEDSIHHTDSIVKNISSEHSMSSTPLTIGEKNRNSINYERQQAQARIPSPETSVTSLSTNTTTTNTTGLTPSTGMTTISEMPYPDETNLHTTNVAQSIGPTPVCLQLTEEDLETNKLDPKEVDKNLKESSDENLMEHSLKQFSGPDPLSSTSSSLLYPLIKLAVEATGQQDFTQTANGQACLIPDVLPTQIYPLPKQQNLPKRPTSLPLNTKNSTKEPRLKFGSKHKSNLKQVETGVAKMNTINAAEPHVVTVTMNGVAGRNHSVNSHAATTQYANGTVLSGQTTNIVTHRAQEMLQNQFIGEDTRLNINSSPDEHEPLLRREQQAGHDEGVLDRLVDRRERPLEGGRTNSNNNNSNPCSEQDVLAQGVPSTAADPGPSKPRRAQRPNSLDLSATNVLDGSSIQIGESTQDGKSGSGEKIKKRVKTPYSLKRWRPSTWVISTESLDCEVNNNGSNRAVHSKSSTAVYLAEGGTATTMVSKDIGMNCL
compound,measurement,setting,value
"CCc1ccccc1NC(=O)c1c(C)nsc1Nc1cnc2cc(F)ccc2n1 [Example 20, N-(2-Ethylphenyl)-5-[(6-fluoroquinoxalin-2-yl)amino]-3-methyl-1,2-thiazole-4-carboxamide]",% Ctrl @ 10 μM,[1],73 % Ctrl
same,% Ctrl @ 10 μM,[2],100 % Ctrl
same,% Ctrl @ 10 μM,[3],100 % Ctrl
same,% Ctrl @ 10 μM,[4],100 % Ctrl
same,% Ctrl @ 10 μM,[5],100 % Ctrl
same,% Ctrl @ 10 μM,[6],100 % Ctrl
same,% Ctrl @ 10 μM,[7],100 % Ctrl
same,% Ctrl @ 10 μM,[8],100 % Ctrl
same,% Ctrl @ 10 μM,[9],100 % Ctrl
same,% Ctrl @ 10 μM,[10],100 % Ctrl
same,% Ctrl @ 10 μM,[11],97 % Ctrl
same,% Ctrl @ 10 μM,[12],89 % Ctrl
same,% Ctrl @ 10 μM,[13],68 % Ctrl
same,% Ctrl @ 10 μM,[14],76 % Ctrl
same,% Ctrl @ 10 μM,[15],61 % Ctrl
same,% Ctrl @ 10 μM,[16],100 % Ctrl
same,% Ctrl @ 10 μM,[17],100 % Ctrl
same,% Ctrl @ 10 μM,[18],96 % Ctrl
same,% Ctrl @ 10 μM,[19],67 % Ctrl
same,% Ctrl @ 10 μM,[20],100 % Ctrl
same,% Ctrl @ 10 μM,[21],100 % Ctrl
same,% Ctrl @ 10 μM,[22],87 % Ctrl
same,% Ctrl @ 10 μM,[23],100 % Ctrl
same,% Ctrl @ 10 μM,[24],100 % Ctrl
same,% Ctrl @ 10 μM,[25],100 % Ctrl
same,% Ctrl @ 10 μM,[26],99 % Ctrl
same,% Ctrl @ 10 μM,[27],100 % Ctrl
same,% Ctrl @ 10 μM,[28],100 % Ctrl
same,% Ctrl @ 10 μM,[29],100 % Ctrl
same,% Ctrl @ 10 μM,[30],94 % Ctrl
same,% Ctrl @ 10 μM,[31],61 % Ctrl
same,% Ctrl @ 10 μM,[32],100 % Ctrl
